Experimental data from patent US5723458A, “Hypolipidaemic compounds” (Glaxo Wellcome Inc., priority 1993, dated 1998).

System: rat distal ileal brush border membrane vesicles (active, sodium-dependent 3H taurocholate uptake)
Assay: In vitro inhibition of bile acid uptake
Assay type: biochemical
Settings: 30 seconds at 24° C., versus control active uptake
Protocol: In vitro inhibition of bile acid uptake
Freshly prepared rat distal ileal brush border membrane vesicles (about […] vesicle protein) were incubated for 30 seconds at 24° C. in an incubation mixture comprising […] ^3 H taurocholate, 100 mM NaCl (or KCl) and 80 mM mannitol in 20 mM Hepes Tris pH 7.4. Each test compound was dissolved in ethanol (or water) and then diluted with incubation mixture to an ethanol concentration of not more than 1% v/v. The incubation was terminated by rapid dilution and filtration and the filter washed with an ice-cold isotonic sodium-free buffer.
The uptake of ^3 H taurocholate was measured by the radioactivity remaining on the filter and converted to pmoles/mg vesicle protein. The active, ie sodium-dependent, uptake was obtained by subtracting the passive uptake measured in 100 mM KCl from the total uptake measured in 100 mM NaCl. The active uptake for each test compound was compared with a control active uptake and the results expressed as % inhibition of bile acid uptake.
Data is given below for % inhibition of bile acid uptake at various concentrations of compounds of the invention.

Row | Structure (SMILES) | % inhibition of bile acid uptake (3 μM test compound) [%] | % inhibition of bile acid uptake (10 μM test compound) [%] | % inhibition of bile acid uptake (0.3 μM test compound) [%] | % inhibition of bile acid uptake (1 μM test compound) [%]
1 | CC[C@@H](O)C[C@@]1(CC)CS(=O)(=O)c2ccccc2[C@H](c2ccccc2)N1 (racemic) [Example 1, (+-)-trans-3-ethyl-2,3,4,5-tetrahydro-3-((2R)-2hydroxybutyl)-5-phenyl-1,4-benzothiazepine 1,1-dioxide] | 36 | 69 | – | –
2 | CC[C@@H](O)C[C@@]1(CC)CS(=O)(=O)c2cc(OC)ccc2[C@H](c2ccccc2)N1 (racemic) [Example 2] | 60 | 83 | 22 | 44
3 | CC[C@]1(C[C@H](O)CC(F)(F)F)CS(=O)(=O)c2ccccc2[C@H](c2ccccc2)N1 (racemic) [Example 11, (+-)-trans-1-(3-ethyl-2,3,4,5-tetrahydro-5-phenyl-1,4-benzothiazepin-3-yl)-4,4,4-trifluoro-(2S)-2-butanol-S,S-dioxide] | 63 | 85 | 13 | 31
4 | CC[C@]1(C[C@H](O)CC(F)(F)F)CS(=O)(=O)c2ccc(OC)cc2[C@H](c2ccccc2)N1 (racemic) [Example 12, (+-)-trans-1-(3-ethyl-2,3,4,5-tetrahydro-7-methoxy-5-phenyl-1,4-benzothiazepin-3-yl)-4,4,4-trifluoro-(2S)-2-butanol-S,S-dioxide] | 86 | 95 | 47 | 72
5 | CCC1NC(c2ccc(O)cc2)c2ccccc2S(=O)(=O)C1C[C@@H](O)CC (mixture of isomers) [Example 24, (+-)-Trans-3-Ethyl-2,3,4,5-tetrahydro-2-(2(S)-2-hydroxybutyl)-5-(4-hydroxyphenyl)-1,4-benzothiazepine 1,1-dioxide] | – | 23 | – | –
